In patent US5688938A, “Calcium receptor-active molecules” (priority 1995, dated 1997):

What was measured:
[1] = target: T1, human parathyroid cell calcium receptor (Homo sapiens, UniProt P41180); assay: Cl^- current in Xenopus oocytes expressing cloned human parathyroid calcium receptor; assay type: cell-based; conditions: for Cl^- current: 0.3 mM extracellular Ca^2+, NPS 019 3 to 30 μM
T1 construct: cRNA injected in Xenopus oocytes
T1 sequence (P41180 20-1078 R990G/E1011Q): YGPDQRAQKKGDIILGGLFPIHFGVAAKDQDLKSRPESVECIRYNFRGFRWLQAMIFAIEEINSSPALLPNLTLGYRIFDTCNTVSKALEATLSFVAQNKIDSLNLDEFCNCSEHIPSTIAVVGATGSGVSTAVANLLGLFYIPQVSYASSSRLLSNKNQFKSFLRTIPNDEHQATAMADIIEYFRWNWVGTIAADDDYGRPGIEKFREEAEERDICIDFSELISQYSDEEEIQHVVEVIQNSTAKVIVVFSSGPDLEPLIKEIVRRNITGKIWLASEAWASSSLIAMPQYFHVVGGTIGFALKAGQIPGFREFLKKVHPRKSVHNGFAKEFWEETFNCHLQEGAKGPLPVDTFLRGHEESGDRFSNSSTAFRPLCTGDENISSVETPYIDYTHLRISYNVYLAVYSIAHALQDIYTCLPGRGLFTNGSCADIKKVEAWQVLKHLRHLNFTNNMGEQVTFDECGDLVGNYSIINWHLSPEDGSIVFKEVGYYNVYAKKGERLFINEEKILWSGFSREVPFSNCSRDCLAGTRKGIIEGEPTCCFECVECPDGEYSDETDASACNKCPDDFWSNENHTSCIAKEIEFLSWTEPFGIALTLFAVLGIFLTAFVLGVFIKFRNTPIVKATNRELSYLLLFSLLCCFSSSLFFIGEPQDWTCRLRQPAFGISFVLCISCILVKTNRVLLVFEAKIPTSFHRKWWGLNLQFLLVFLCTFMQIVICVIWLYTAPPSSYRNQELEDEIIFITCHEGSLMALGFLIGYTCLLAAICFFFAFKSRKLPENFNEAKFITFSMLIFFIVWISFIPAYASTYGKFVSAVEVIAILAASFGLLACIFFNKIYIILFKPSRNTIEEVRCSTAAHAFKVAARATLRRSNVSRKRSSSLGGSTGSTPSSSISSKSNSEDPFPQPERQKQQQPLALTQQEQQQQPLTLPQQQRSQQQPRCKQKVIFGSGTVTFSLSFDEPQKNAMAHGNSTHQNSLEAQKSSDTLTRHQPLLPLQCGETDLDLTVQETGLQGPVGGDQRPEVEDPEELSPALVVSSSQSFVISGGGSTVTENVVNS
Experimental: Representative cDNA inserts for both size classes were subcloned into the plasmid vector pBluescript SK. Linearization followed by in vitro transcription using T7 RNA polymerase produced cRNA transcripts. The cRNA transcripts were injected into Xenopus oocytes (150 ng/μl RNA; 50 nl/oocyte) for functional analysis. Following incubation periods of 2-4 days, the oocytes were assayed for the presence of functional calcium receptors. Both clone types gave rise to functional calcium receptors as assessed by the stimulation of calcium-activated chloride currents upon addition of appropriate calcium receptor agonists. […] Thus, both clones encode a functional, human parathyroid cell calcium receptor.
Xenopus oocytes were injected with pHuPCaR 5.2, the 5.2 Kb cDNA encoding a parathyroid cell calcium receptor derived from a human parathyroid cell adenoma. (See Example 27.) After two to three days, Cl^- currents were measured in the oocytes using a two-electrode voltage clamp.

[2] = hypocalcemic response in thyroidectomized rats; assay type: in vivo, rat; conditions: 3 to 100 mg/kg p.o.
Excerpt: In subsequent studies, rats received a thyroidectomy (parathyroid glands intact). This surgical procedure effectively removed the C-cells secreting calcitonin and therefore enabled the relative contributions of PTH and calcitonin to the hypocalcemic effect of this compound to be determined. […] The only difference was that the rate of onset of the hypocalcemic response was somewhat delayed in thyroidectomized animals. […] Stimulatory effects of this compound on calcitonin secretion increases the rate of onset, but not the extent, of hypocalcemia.

[3] = single oral doses of NPS R-568 in a healthy post-menopausal person; assay type: in vivo, human
Excerpt: A range of single oral doses was used to assess safety, tolerance, and changes in primary hyperparathyroidism markers (e.g., plasma concentrations of parathyroid hormone and ionized serum calcium) and of serum calcitonin.

net positive charge = assay type: physicochemical
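For Serum Calcitonin in this document: serum calcitonin in pg/mL.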

NCCCNCCCCNCCCNCCCNCCCNC(=O)Cc1c[nH]c2ccccc12 [NPS 019, reference compound]
Cl^- current response in absence of extracellular Ca^2+ [1]: persisted
Cl^- current [1]: evoked increases in the Cl^- current

COc1cccc([C@@H](C)NCCCc2ccccc2Cl)c1 [NPS R-568, (R)-(+)-N-[3-(2-chlorophenyl)propyl]-α-methyl-3-methoxybenzylamine]
Cl^- current response in absence of extracellular Ca^2+ [1]: abolished
Cl^- current [1]: evoked increases in the Cl^- current
activation of oocyte-expressed human receptor ([1]; pHuPCaR 5.2 and 4.0): activated the oocyte-expressed receptor at about the same concentrations
hypocalcemic response in thyroidectomized animals [2]: hypocalcemic response equal in magnitude to that produced in sham-operated animals
Serum Calcitonin ([3]; 20 mg oral, 0 h): 3.2 pg/mL
Serum Ionized Calcium ([3]; 20 mg oral, 0 h): 1.26 mM
Serum PTH ([3]; 20 mg oral, 0 h): 31 pg/mL
Serum Calcitonin ([3]; 20 mg oral, 0.5 h): 3.8 pg/mL
Serum Ionized Calcium ([3]; 20 mg oral, 0.5 h): 1.26 mM
Serum PTH ([3]; 20 mg oral, 0.5 h): 23 pg/mL
Serum Calcitonin ([3]; 20 mg oral, 1 h): 3.2 pg/mL
Serum Ionized Calcium ([3]; 20 mg oral, 1 h): 1.26 mM
Serum PTH ([3]; 20 mg oral, 1 h): 18 pg/mL
Serum Calcitonin ([3]; 20 mg oral, 2 h): 4.5 pg/mL
Serum Ionized Calcium ([3]; 20 mg oral, 2 h): 1.26 mM
Serum PTH ([3]; 20 mg oral, 2 h): 24 pg/mL
Serum Calcitonin ([3]; 20 mg oral, 4 h): 4.2 pg/mL
Serum Ionized Calcium ([3]; 20 mg oral, 4 h): 1.26 mM
Serum PTH ([3]; 20 mg oral, 4 h): 34 pg/mL
Serum Calcitonin ([3]; 20 mg oral, 8 h): 3.9 pg/mL
Serum Ionized Calcium ([3]; 20 mg oral, 8 h): 1.26 mM
Serum PTH ([3]; 20 mg oral, 8 h): 34 pg/mL
Serum Calcitonin ([3]; 20 mg oral, 12 h): 3.2 pg/mL
Serum Ionized Calcium ([3]; 20 mg oral, 12 h): 1.23 mM
Serum PTH ([3]; 20 mg oral, 12 h): 48 pg/mL
Serum Calcitonin ([3]; 20 mg oral, 24 h): 3.6 pg/mL
Serum Ionized Calcium ([3]; 20 mg oral, 24 h): 1.29 mM
Serum PTH ([3]; 20 mg oral, 24 h): 32 pg/mL
Serum Calcitonin ([3]; 240 mg oral, 0 h): 5.8 pg/mL
Serum Ionized Calcium ([3]; 240 mg oral, 0 h): 1.26 mM
Serum PTH ([3]; 240 mg oral, 0 h): 29 pg/mL
Serum Calcitonin ([3]; 240 mg oral, 0.5 h): 4.8 pg/mL
Serum Ionized Calcium ([3]; 240 mg oral, 0.5 h): 1.26 mM
Serum PTH ([3]; 240 mg oral, 0.5 h): 18 pg/mL
Serum Calcitonin ([3]; 240 mg oral, 1 h): 6.5 pg/mL
Serum Ionized Calcium ([3]; 240 mg oral, 1 h): 1.25 mM
Serum PTH ([3]; 240 mg oral, 1 h): 6 pg/mL
Serum Calcitonin ([3]; 240 mg oral, 2 h): 7.5 pg/mL
Serum Ionized Calcium ([3]; 240 mg oral, 2 h): 1.23 mM
Serum PTH ([3]; 240 mg oral, 2 h): 6 pg/mL
Serum Calcitonin ([3]; 240 mg oral, 4 h): 6.1 pg/mL
Serum Ionized Calcium ([3]; 240 mg oral, 4 h): 1.19 mM
Serum PTH ([3]; 240 mg oral, 4 h): 10 pg/mL
Serum Calcitonin ([3]; 240 mg oral, 8 h): 4.7 pg/mL
Serum Ionized Calcium ([3]; 240 mg oral, 8 h): 1.16 mM
Serum PTH ([3]; 240 mg oral, 8 h): 27 pg/mL
Serum Calcitonin ([3]; 240 mg oral, 12 h): 5.3 pg/mL
Serum Ionized Calcium ([3]; 240 mg oral, 12 h): 1.18 mM
Serum PTH ([3]; 240 mg oral, 12 h): 35 pg/mL
Serum Calcitonin ([3]; 240 mg oral, 24 h): 8.3 pg/mL
Serum Ionized Calcium ([3]; 240 mg oral, 24 h): 1.23 mM
Serum PTH ([3]; 240 mg oral, 24 h): 34 pg/mL
Serum Calcitonin ([3]; 400 mg oral, 0 h): 3.4 pg/mL
Serum Ionized Calcium ([3]; 400 mg oral, 0 h): 1.24 mM
Serum PTH ([3]; 400 mg oral, 0 h): 33 pg/mL
Serum Calcitonin ([3]; 400 mg oral, 0.5 h): 4.0 pg/mL
Serum Ionized Calcium ([3]; 400 mg oral, 0.5 h): 1.26 mM
Serum PTH ([3]; 400 mg oral, 0.5 h): 13 pg/mL
Serum Calcitonin ([3]; 400 mg oral, 1 h): 6.0 pg/mL
Serum Ionized Calcium ([3]; 400 mg oral, 1 h): 1.25 mM
Serum PTH ([3]; 400 mg oral, 1 h): 9 pg/mL
Serum Calcitonin ([3]; 400 mg oral, 2 h): 7.1 pg/mL
Serum Ionized Calcium ([3]; 400 mg oral, 2 h): 1.22 mM
Serum PTH ([3]; 400 mg oral, 2 h): 8 pg/mL
Serum Calcitonin ([3]; 400 mg oral, 4 h): 5.2 pg/mL
Serum Ionized Calcium ([3]; 400 mg oral, 4 h): 1.19 mM
Serum PTH ([3]; 400 mg oral, 4 h): 11 pg/mL
Serum Calcitonin ([3]; 400 mg oral, 8 h): 3.8 pg/mL
Serum Ionized Calcium ([3]; 400 mg oral, 8 h): 1.13 mM
Serum PTH ([3]; 400 mg oral, 8 h): 20 pg/mL
Serum Calcitonin ([3]; 400 mg oral, 12 h): 3.7 pg/mL
Serum Ionized Calcium ([3]; 400 mg oral, 12 h): 1.15 mM
Serum PTH ([3]; 400 mg oral, 12 h): 31 pg/mL
Serum Calcitonin ([3]; 400 mg oral, 24 h): 3.0 pg/mL
Serum Ionized Calcium ([3]; 400 mg oral, 24 h): 1.22 mM
Serum PTH ([3]; 400 mg oral, 24 h): 31 pg/mL
effect on serum ionized calcium (summary) ([3]; human, higher oral doses): decrease in serum ionized calcium concentration
effect on plasma PTH (summary) ([3]; human, oral): transient dose-dependent decrease in plasma PTH concentration
effect on serum calcitonin (summary) ([3]; human, oral): no apparent change in serum calcitonin

NC[C@@H]1O[C@H](O[C@H]2[C@@H](O)[C@H](O[C@@H]3[C@@H](O)[C@H](N)C[C@H](N)[C@H]3O[C@H]3O[C@H](CN)[C@@H](O)[C@H](O)[C@H]3N)O[C@@H]2CO)[C@H](N)[C@@H](O)[C@@H]1O [Neomycin]
Net (+) Charge (net positive charge; Table 1, at physiological pH): +6
net positive charge at pH 7.3 (net positive charge; pH 7.3): +6
